Results reported in patent US9611246B2, “Compositions, apparatus, systems, and methods for resolving electronic excited states” (HALLSTAR INNOVATIONS CORP., priority 2012, dated 2017).

Assay: Singlet oxygen phosphorescence from photoexcited protoporphyrin IX in air saturated DMSO-d6
Assay type: physicochemical
Text: Singlet oxygen was generated by pulsed laser excitation in the UV (355 nm) by protoporphyrin IX. Protoporphyrin IX was selected on the basis of its high extinction coefficient (FIG. 2). The solvent DMSO-d6 was selected because of good solubility of the sensitizer and stabilizers. The deuterated form of DMSO was used because of the longer singlet oxygen lifetime in deuterated solvents compared to solvents containing hydrogen. FIG. 10 and FIG. 11 show kinetic traces of singlet oxygen phosphorescence generated from photoexcitation of protoporphyrin IX. […] Excited state quenching of the protoporphyrin IX by the two compounds is unlikely to occur at these low stabilizer concentrations (μM).
In the previous experiments, singlet oxygen was generated by pulsed laser excitation in the UV spectral region (355 nm) of protoporphyrory IX. […] This was explained by a simple optical screening mechanism, where the compound of Formula I(a)(1) and alkoxy crylene absorb the UV light.
In this example, laser excitation was performed with visible light at 532 nm, where the compound of Formula I(a)(1) and the alkoxy crylene compound are transparent. […] The absence of singlet oxygen suppression with 532 nm excitation supports the optical screening mechanism with 355 nm excitation. […]

COC(=O)C(C#N)=C1c2ccccc2-c2ccccc21 [Formula I(a)(1)]
singlet oxygen phosphorescence (355 nm excitation, 250 μM stabilizer): significantly reduced singlet oxygen phosphorescence | concentration above which the amount of generated singlet oxygen was reduced (532 nm excitation): above 3 mM
